# Marks after values point to notes of the source that are not given here.
# What was measured:
# [1] = tested on: adult male CF-1 mice; assay: Foot electroshock stress induced cGMP elevation model for anxiety; type: in vivo; settings: normalized to vehicle/no stress group, mean
# From the text: The foot electroshock stress induced cGMP elevation model for anxiety is an established anxiety model, wherein stress from an unavoidable electroshock to the feet induces an elevation in cerebellar cGMP levels, which elevation is reduced or blocked by preadministration of anxiolytic compounds (Sethy and Oien (1991), Pharmacology Biochemistry & Behavior, vol. 39, pg. 379-382). Briefly, adult male CF-1 mice (25-30 g Harlan, Indianapolis, Ind.) are housed under a 12-hr light/dark cycle in a temperature and humidity controlled environment. Mice are habituated to the environment for at least 3 days and all studies are carried out between 9:00 AM and 12:00 noon to reduce the effects of diurnal fluctuations. Test mice are given a single intraperitoneal injection of test compound or control (vehicle is 3% DMSO, 20% emulphor stock, 10% lactic acid stock) and are sacrificed approximately 30 min. after dosing, using a beam of microwave radiation (microwave fixation system model GA5013; Gerling Applied Engineering, Modesto, Calif.) focused on the skull for 0.5 sec. at high power setting. This method preserves tissue cGMP content. After microwaving, a small piece (10-20 mg) of cerebellar cortex is quickly removed from the skull. The tissue is weighed and then homogenized in 2 ml of 1.0% perchloric acid. Tissue homogenate is kept on ice for 30 min followed by 5 min. in a boiling water bath. The homogenate is then centrifuged at 11,700 g for 20 min. 1 mL of supernatant is then acetylated with 40 μl of triethylamine and 20 μl of acetic anhydride, vortexed, and centrifuged at 13,000 g for 20 min at 4° C. Acetylated mouse cerebellum samples are stored at 4° C. pending cGMP analysis by radioimmunoassay with the cGMP ^125I Flash Plate radioimmunoassay test kit (PerkinElmer Life and Analytical Sciences, Boston, Mass.) on duplicate samples from each animal as per manufacturer's instructions.
# For stressed mouse groups, 30 min. post injection, mice are subjected to a 1.0 mA foot-shock for 10 sec. in a Habitest Operant cage equipped with a modular shock floor (Habitest Modular Test System, Coulbourn Instruments, Allentown, Pa.). Mice are then sacrificed and cerebellar cortex samples are processed as described.
# For each animal, cGMP levels are normalized to wet tissue weight and used to compute group averages and S.E.M. (typically 4-6 mice per group). All data are analyzed on the log scale to correct problems with heterogeneity of variance. Statistical analyses are performed using ANOVA followed by Dunnett's method to compare each treatment group to the vehicle group.
# [2] = tested on: Male Sprague Dawley rats; assay: Formalin model of persistent pain; type: in vivo; settings: formalin into hind paw
# Experimental: The “formalin model” of persistent pain, particularly for inflammatory pain and neuropathic pain, is well known and can be used to test compounds for pain blocking and/or analgesic activity. (see Shibata M. et al., Pain (1989) 38: 347-352; and Tjolsen A. et al., Pain (1992) 51:5-17.)
# Male Sprague Dawley rats (Harlan Labs, Indianapolis, Ind.) weighing between 200-250 g are maintained at constant temperature (21-23° C.) and light (12 hr. light/12 hr. dark), with free access to food and water for 7 days prior to testing. All testing is conducted during the light cycle after fasting over night and with the testing room temperature maintained at constant temperature (21-23° C.). […]
# The animals are administered either vehicle or test compound and individually placed in holding cylinders. […] The cylinders are then placed on the load cells of the detection system and the response monitored continuously for 60 min. in 1-second bins (i.e. collections periods). As previously described by Jett and Michelson, the formalin-induced movements, “events,” detected by the system include licking and flinching the affected paw. […]
# Data are evaluated by one-way analysis of variance (ANOVA) and the appropriate contrasts analyzed by the Dunnett ‘t’ test for 2-sided comparisons using JMP statistical analysis program (v5.1.1 SAS Institute Inc., Cary, N.C.). […]
# [3] = target: T1, 5-HT7 receptor (Homo sapiens, UniProt P34969); assay: Functional antagonist assay: measurement of cAMP formation; type: cell-based
# T1 construct: expressed in transfected cells; host or cells: AV-12 cells
# Experimental: For cAMP functional assays, the 5-HT7-expressing cells from above are grown in 150 cm^2 flasks and processed essentially as follows. The media is aspirated from the flasks and cells are washed with 1 mL PBS. The cells are trypsinized and resuspended in complete media. A sample of the cells is counted and the remainder is centrifuged as above for 3 min. The resulting cell pellet is resuspended in PBS at a concentration of 1×10^6 cells per mL and used directly in the cAMP assay as described.
# The 5-HT7 receptor is functionally coupled to a G-protein as measured by the ability of serotonin and serotonergic drugs to stimulate cAMP production in CHO cells transfected with the 5-HT7 receptor. (Ruat, et al., Proceedings of the National Academy of Sciences (USA), 90:8547-8551, 1993.) Accordingly, functional receptor activity can be measured by measuring adenylate cyclase activity using a commercially available cell-based, homogeneous, time resolved fluorescence assay kit, as for example the kit produced by Cisbio-US, Inc. (Bedford, Mass.). Essentially, and using the protocol and reagents provided by the manufacturer, approximately 20,000 human 5-HT7 receptor-expressing AV-12 cells (as described above) are used with test compound dose concentrations in the range described for the binding assay. […] A cAMP standard curve is also run in every experiment. After the assay plates are read in an Envision™ instrument (Perkin-Elmer, Wellesley Mass.), the data is normalized to the standard curve and converted to percent inhibition for data analysis as described above for the receptor binding assay results. The Kb (nM) is calculated as a measure of the antagonist potency of the compound.
# [4] = tested on: male Harlan Sprague-Dawley rats; assay: Animal model of dural plasma protein extravasation (PPE); type: in vivo; settings: saline controls approximately 2.0, full prevention approximately 1.0
# From the text: The dural plasma protein extravasation model is an established model for migraine. The ability of a test compound to reduce extravasation of plasma proteins into the dura under assay conditions is considered indicative of the compound's ability to reduce or prevent the dural inflammation thought to be symptomatic of migraine. (see Johnson, K. W., et al., Neuroreport, 8 (1997) 2237-2240.)
# To assay compounds for their ability to reduce or prevent dural plasma protein extravasation, male Harlan Sprague-Dawley rats (250-350 g) are anesthetized with sodium pentobarbital (65 mg/kg, i.p.) and placed in a stereotaxic frame (David Kopf Instruments) with the incisor bar set at −2.5 mm. Following a midline sagital scalp incision, 2 pairs of bilateral holes are drilled through the skull (3.2 mm posterially, 1.8 and 3.8 mm laterally, all coordinates referenced to bregma). […]
# The amount of FITC-BSA for each sample is quantified with a fluorescence microscope (Zeiss) equipped with a grating monochromator, a spectrophotometer, and a computer driven stage. Fluorescence measurements are taken at 25 points in a 5×5 grid in 500 μm steps on each dural sample with an excitation wavelength of approximately 490 nm and emission intensity measured at approximately 535 nm. The mean and standard deviation of the 25 measurements are determined. […]
# [5] = tested on: Male Sprague Dawley rats; assay: L5/L6 nerve ligation model (Chung model) of persistent pain; type: in vivo; settings: i.p.
# Experimental: The L5/L6 Nerve Ligation model (Chung model) is a well established model for persistent pain, specifically neuropathic pain. Surgery is performed on male Sprague Dawley rats (Harlan, Indianapolis, Ind.), weighing 150-200 g at the time of surgery as previously described (Kim and Chung, 1992). Briefly, neuropathic injury is produced by tightly ligating the left L5 and L6 spinal nerves under gas anesthesia with a mixture of isoflurane (3% for induction and 2% for maintenance) and O2. Following surgery, development of neuropathic pain is evaluated daily by measuring mechanical sensitivity of the injured paw to von Frey filaments with incremental bending forces (0.5-15 g) as described by (Chaplan et al., 1994). […] Test drug or vehicle is administered i.p. and the mechanical threshold for paw flinching is measured at 0.5, 1, 2, 3, 4 and 6 hr. after dosing. Measurement of the mechanical threshold for paw flinching is also done prior to surgery (preoperative control). Data are expressed as the threshold force required to elicit a response (g) as means±S.E.M. (standard error of the mean).
# T1 sequence (P34969 whole entry): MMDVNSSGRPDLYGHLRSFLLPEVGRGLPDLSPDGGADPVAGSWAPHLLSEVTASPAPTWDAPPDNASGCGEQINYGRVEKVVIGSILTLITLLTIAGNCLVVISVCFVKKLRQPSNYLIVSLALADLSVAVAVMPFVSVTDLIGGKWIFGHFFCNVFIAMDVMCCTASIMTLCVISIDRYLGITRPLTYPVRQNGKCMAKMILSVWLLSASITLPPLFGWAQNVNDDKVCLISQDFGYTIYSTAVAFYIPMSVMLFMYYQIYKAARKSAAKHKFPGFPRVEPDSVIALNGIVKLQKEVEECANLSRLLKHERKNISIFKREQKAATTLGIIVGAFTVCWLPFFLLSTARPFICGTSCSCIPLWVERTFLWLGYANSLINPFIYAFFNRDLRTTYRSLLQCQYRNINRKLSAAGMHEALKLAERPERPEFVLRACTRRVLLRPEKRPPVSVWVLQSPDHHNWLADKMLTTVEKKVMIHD
compound,measurement,setting,value
"Cc1nnc2n1-c1ccc(Cl)cc1C(c1ccccc1)=NC2 [Alprazolam, alprazolam]","cerebellar cGMP, stress","[1]; 1 mg/kg (ip, 30 min)/stress",60* percent
"CNC1=Nc2ccc(Cl)cc2C(c2ccccc2)=[N+]([O-])C1 [Chlordiazepoxide, chlordiazepoxide]","cerebellar cGMP, stress","[1]; 10 mg/kg (ip, 30 min)/stress",129%
same,"cerebellar cGMP, stress","[1]; 30 mg/kg (ip, 30 min)/stress",106* percent
same,"cerebellar cGMP, stress","[1]; 60 mg/kg (ip, 30 min)/stress",71* percent
"Cc1c(CN2CCN(c3nccnc3-c3ccc(F)cc3)CC2)cnn1-c1ccccc1.Cl [Example 19, 4-(5-methyl-1-phenyl-1H-pyrazol-4-ylmethyl)-3′-(4-fluorophenyl)-3,4,5,6-tetrahydro-2H-[1,2′]bipyrazine hydrochloride]","formalin-induced events, early and late phases",[2],active on both the early and late phases
"Cl.Cn1cc(CN2CCN(c3cccnc3-c3ccc(F)cc3)CC2)cn1 [Example 74, 1-[2-(4-Fluoro-phenyl)-pyridin-3-yl]-4-(1-methyl-1H-pyrazol-4-ylmethyl)-piperazine hydrochloride]",Kb,"[3]; antagonist potency, cAMP, 5-HT7-expressing AV-12 cells",~0.044 µM
same,antagonist character at the 5-HT7 receptor,[3]; cAMP formation,full antagonist
same,inhibition,"[3]; cAMP formation, 5-HT7-expressing AV-12 cells",about 96%
"Cc1c(CN2CCN(c3nccnc3-c3cccc(F)c3)CC2)cnn1C.Cl [Example 127, 4-(1,5-Dimethyl-1H-pyrazol-4-ylmethyl)-3′-(3-fluoro-phenyl)-3,4,5,6-tetrahydro-2H-[1,2′]bipyrazinyl hydrochloride]","ratio of extravasation in the dura, stimulated side over unstimulated side",[4],about 1.16
"Cc1ccc(-c2nccnc2N2CCN(Cc3cn(C)nc3C)CC2)cc1.O=C(O)/C=C/C(=O)O [Example 186, 4-(1,3-Dimethyl-1H-pyrazol-4-ylmethyl)-3′-(4-methylphenyl)-3,4,5,6-tetrahydro-2H-[1,2′]bipyrazine fumarate]",threshold force required to elicit a response (mechanical allodynia),[5],active
same,"cerebellar cGMP, stress","[1]; 3 mg/kg (ip, 30 min)/stress",278%
same,"cerebellar cGMP, stress","[1]; 10 mg/kg (ip, 30 min)/stress",264%
same,"cerebellar cGMP, stress","[1]; 30 mg/kg (ip, 30 min)/stress",234%
same,"cerebellar cGMP, stress","[1]; 60 mg/kg (ip, 30 min)/stress",117* percent
CC1CCN(CC[C@H]2CCCN2S(=O)(=O)c2cccc(O)c2)CC1 [SB-269970],"cerebellar cGMP, stress","[1]; 3 mg/kg (ip, 30 min)/stress",270%
same,"cerebellar cGMP, stress","[1]; 10 mg/kg (ip, 30 min)/stress",225%
same,"cerebellar cGMP, stress","[1]; 30 mg/kg (ip, 30 min)/stress",171* percent

# — patent US8202873B2, “2-[4-(pyrazol-4-ylalkyl)piperazin-1-yl]-3-phenyl pyrazines as 5-HT7 receptor antagonists” (Eli Lilly and Company, priority 2007, dated 2012)
